Source: patent US12383533B2 (Frost Biologic, Inc., priority 2014, dated 2025)

Assays:
Assay type in all cases: cell-based
A2780 cells = experiment: Cell Viability Assay (ATPlite 1step), A2780; conditions: Homo sapiens, 72 hours; for percent inhibition of cell viability at 4 µM: A2780, 4 uM compound, read-out: Cell Viability % inhibition A2780 (4 uM Cpd); for percent inhibition of cell viability at 20 µM: A2780, 20 uM compound, read-out: Cell Viability % inhibition A2780 (20 uM Cpd)
Protocol: (§1) Cell Viability Assay Protocol
(§2) Cells were trypsinized, counted, and re-seeded into a 384-well tissue culture plate at 1000 cells per well in […] media. Cells were incubated at 37° C. in an atmosphere of 5% CO2 for 24 hours. Experimental compounds, initially dissolved in DMSO and diluted further in media were added to the wells and incubated for 72 hours. Cell viability was measured using the ATPlite 1step Luminescence Detection Assay system (Perkin Elmer) as described in the Assay kit instructions.
(§3) Cell Culture Lines and Media: (1) A2780 cells were cultured in RPMI media with 10% FBS and 1% antibiotics. Cells were typically split every 3-5 days at a 1:10 dilution; (2) PC3 cells were cultured in RPMI media with 10% FBS and 1% antibiotics. Cells were typically split every 3-5 days at a 1:4 dilution; (3) MCF-7 cells were grown in K-12F media with 10% FBS and 1% antibiotics. Cells were typically split every 3-5 days at a 1:10 dilution.

PC3 cells = experiment: Cell Viability Assay (ATPlite 1step), PC3; conditions: Homo sapiens, PC-3, 72 hours; for percent inhibition of cell viability at 4 µM: PC3, 4 uM compound, read-out: Cell Viability % inhibition PC3 (4 uM Cpd); for percent inhibition of cell viability at 20 µM: PC3, 20 uM compound, read-out: Cell Viability % inhibition PC3 (20 uM Cpd)
Protocol: as §1, §2, §3

MCF-7 cells = experiment: Cell Viability Assay (ATPlite 1step), MCF-7; conditions: Homo sapiens, MCF7, 72 hours; for percent inhibition of cell viability at 4 µM: MCF-7, 4 uM compound, read-out: Cell Viability % inhibition MCF-7 (4 uM Cpd); for percent inhibition of cell viability at 20 µM: MCF-7, 20 uM compound, read-out: Cell Viability % inhibition MCF-7 (20 uM Cpd)
Protocol: as §1, §2, §3

Row | Compound | percent inhibition of cell viability at 4 µM (A2780 cells) [%] | percent inhibition of cell viability at 20 µM (A2780 cells) [%] | percent inhibition of cell viability at 4 µM (PC3 cells) [%] | percent inhibition of cell viability at 20 µM (PC3 cells) [%] | percent inhibition of cell viability at 4 µM (MCF-7 cells) [%] | percent inhibition of cell viability at 20 µM (MCF-7 cells) [%]
1 | O=C(Nc1ccc(-c2cccs2)cn1)c1cccnc1 [Compound 11, N-[5-(thiophen-2-yl)pyridin-2-yl]pyridine-3-carboxamide] | 85 | 97.8 | 70 | 83.8 | 58.6 | 88.9
2 | O=C(Nc1ccc(-c2ccccn2)cn1)c1cncnc1 [Compound 15, N-(3,2′-bipyridin-6-yl)pyrimidine-5-carboxamide] | 68.8 | 73.4 | 40.8 | 48.2 | 34.5 | 25.6
3 | Cc1ncc(C(=O)Nc2ncc(-c3cccc(NC4CC4)c3)cc2F)cn1 [Compound 68, N-{5-[3-(cyclopropylamino)phenyl]-3-fluoropyridin-2-yl}-2-methylpyrimidine-5-carboxamide] | 87.1 | 89 | 58.4 | 64.4 | 54.3 | 59.3
4 | Cc1ncc(C(=O)Nc2ccc(-c3csc(C)c3)cn2)cn1 [Compound 62, 2-methyl-N-[5-(5-methylthiophen-3-yl)pyridin-2-yl]pyrimidine-5-carboxamide] | 85.2 | 89.9 | 54.8 | 65.1 | 59.4 | 67
5 | Cc1ncc(C(=O)Nc2ccc(-c3cc(N4CCN(C)CC4)cc(S(=O)(=O)C4CC4)c3)c(C)n2)cn1 [Compound 50, N-{5-[3-cyclopropylsulfonyl-5-(4-methylpiperazin-1-yl)phenyl]-6-methylpyridin-2-yl}-2-methylpyrimidine-5-carboxamide] | 7.3 | 62.6 | 39.2 | 54.7 | 10 | 40.7
6 | O=C(Nc1ncc(-c2ccccc2)cn1)c1cncnc1 [Compound 12, N-(5-phenylpyrimidin-2-yl)pyrimidine-5-carboxamide] | 82.7 | 91.3 | 59.7 | 69.2 | 53.7 | 69.8
7 | Cc1ncc(C(=O)Nc2ccc(-c3cc(Cl)cc(N4CCN(C)CC4)c3)cn2)cn1 [Compound 47, N-{5-[3-chloro-5-(4-methylpiperazin-1-yl)phenyl]pyridin-2-yl}-2-methylpyrimidine-5-carboxamide] | 88.7 | 95.5 | 63.2 | 78.6 | 40.6 | 64.6
8 | COc1cccc(-c2ccc(NC(=O)c3cncnc3)nc2)c1 [Compound 18, N-[5-(3-methoxyphenyl)pyridin-2-yl]pyrimidine-5-carboxamide] | 88.5 | 91.5 | 66.2 | 76.5 | 58.8 | 75.4
9 | O=C(Nc1ccc(-c2cccnc2)cn1)c1cncnc1 [Compound 14, N-(3,3′-bipyridin-6-yl)pyrimidine-5-carboxamide] | 51.2 | 71.4 | 23.9 | 43.3 | 19.1 | 30.3
10 | O=C(Nc1ccc(-c2ccoc2)cn1)c1cncnc1 [Compound 19, N-[5-(furan-3-yl)pyridin-2-yl]pyrimidine-5-carboxamide] | 83.2 | 91.8 | 62.2 | 75.2 | 56.4 | 69.6
11 | O=C(Nc1ccc(-c2ccncc2)cn1)c1cncnc1 [Compound 13, N-(3,4′-bipyridin-6-yl)pyrimidine-5-carboxamide] | 9.3 | 47.2 | 19.2 | 17.5 | 4.5 | 0.2
12 | Cc1ncc(C(=O)Nc2ccc(-c3ccccc3)cn2)cn1 [Compound 8, 2-methyl-N-(5-phenylpyridin-2-yl)pyrimidine-5-carboxamide] | 89.8 | 90.8 | 71.6 | 71.7 | 68.7 | 74.5
13 | CNC(=O)c1cccc(-c2ccc(NC(=O)c3cncnc3)nc2)c1 [Compound 17, N-{5-[3-(methylcarbamoyl)phenyl]pyridin-2-yl}pyrimidine-5-carboxamide] | 84.5 | 91.7 | 62.8 | 81.7 | 56.3 | 75.5
14 | Nc1ncc(C(=O)Nc2ccc(-c3ccccc3)cn2)cn1 [Compound 9, 2-amino-N-(5-phenylpyridin-2-yl)pyrimidine-5-carboxamide] | 92.5 | 90.6 | 70.7 | 76.7 | 70.9 | 75.5
15 | O=C(Nc1ccc(-c2ccc(Cl)cc2)cn1)c1cncnc1 [Compound 2, N-[5-(4-chlorophenyl)pyridin-2-yl]pyrimidine-5-carboxamide] | 19.5 | 65.2 | 4.9 | 17.4 |  | 
16 | O=C(Nc1ccc(-c2cccc(OC3CC3)c2)cn1)c1cncnc1 [Compound 26, N-{5-[3-(cyclopropyloxy)phenyl]pyridin-2-yl}pyrimidine-5-carboxamide] | 76 | 79.9 | 59.3 | 67.5 |  | 
17 | O=C(Nc1ccc(-c2cccc(C3COC3)c2)cn1)c1cccnc1 [Compound 43, N-{5-[3-(oxetan-3-yl)phenyl]pyridin-2-yl}pyridine-3-carboxamide] | 82.6 | 86.7 | 75.1 | 84.5 |  | 
18 | O=C(Nc1ccc(-c2cccc(C3CC3)c2)cn1)c1cnccc1F [Compound 39, N-[5-(3-cyclopropylphenyl)pyridin-2-yl]-4-fluoropyridine-3-carbox-amide] | 55.6 | 58.7 | 19.2 | 28.7 |  | 
19 | O=C(Nc1ccc(-c2cccc(C3CCC3)c2)cn1)c1cncnc1 [Compound 45, N-[5-(3-cyclobutylphenyl)pyridin-2-yl]pyrimidine-5-carboxamide] | 87.6 | 86.4 | 80.8 | 83.3 |  | 
20 | Cc1ccc(C(=O)Nc2ccc(-c3cccc(N4CCN(C)CC4)c3)cn2)cn1 [Compound 37, N-{5-[3-(4-methylpiperazin-1-yl)phenyl]pyridin-2-yl}-6-methylpyridine-3-carboxamide] | 59.2 | 70.8 | 35.4 | 61 |  | 
21 | O=C(Nc1ccc(-c2cccc(OC3CC3)c2)cn1)c1cccnc1 [Compound 28, N-{5-[3-(cyclopropyloxy)phenyl]pyridin-2-yl}pyridine-3-carboxamide] | 77 | 74.2 | 58.9 | 65.6 |  | 
22 | CN1CCN(c2cccc(-c3ccc(NC(=O)c4cncnc4)nc3)c2)CC1 [Compound 34, N-{5-[3-(4-methylpiperazin-1-yl)phenyl]pyridin-2-yl}pyrimidine-5-carboxamide] | 51.6 | 49.4 | 19.8 | 30.3 |  | 
